Experimental findings from ChEMBL document CHEMBL1201862, “PubChem BioAssay data set” (2004) are described below.

Some test systems named below: OVCAR-8; SN12C; NCI/ADR-RES; OVCAR-5; DU-145; MDA-N; OVCAR-3; MDA-MB-231; M14; SK-OV-3; Malme-3M; PC-3; A549; SF-268; UO-31; COLO 205; HCT-116; CAKI-1; HCC 2998; T47D.
Common to all, as to assay: inhibition of tumour cell growth, NCI panel, 48 h

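Grown in 96-well plates, cells were treated for 48 hours with each compound at five concentrations. Insufficient inhibition: endpoint recorded as highest concentration tested. GI50: concentration for 50% inhibition of growth.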 The source made the active and inactive calls. Cut-off read from the data, not from the text of the source: active = GI50 up to about 1.1 µM and inactive = higher. Where only a bound is given, the exact number is not on record here.

On to `O/N=C/[C@H]1COC2(CCCCC2)O1`, for which the GI50 in the test on OVCAR-8, in the test on SN12C, with NCI/ADR-RES, with OVCAR-5, in the test with DU-145 and with MDA-N was > 100 µM (inactive) throughout. The GI50 in the test with OVCAR-3, in the test on MDA-MB-231, in the test with M14, in the test with SK-OV-3, with Malme-3M and with PC-3 was > 100 µM (inactive) each time. For the same compound, the GI50 in the test on A549, with SF-268, in the test on UO-31, with COLO 205 and with HCT-116 was > 100 µM (inactive) in each case.

Regarding `CCN(CC)c1ccc(/C=C/C(=O)c2cc(C(C)(C)C)c(O)c(C(C)(C)C)c2)cc1`, the GI50 was 15.9 µM (inactive) with OVCAR-8; 5.14 µM (inactive) in the test on CAKI-1; 27.4 µM (inactive) with SN12C; 16.3 µM (inactive) in the test on HCC 2998; 4.38 µM (inactive) with NCI/ADR-RES; 5.26 µM (inactive) in the test with OVCAR-5. Also, the GI50 with DU-145 is 29 µM (inactive); with MDA-N, 3.14 µM (inactive); with OVCAR-3, 10.2 µM (inactive); with MDA-MB-231 it was 9.2 µM (inactive); with M14, 21.2 µM (inactive); in the test with SK-OV-3, 28.2 µM (inactive). Further, the GI50 with Malme-3M is > 100 µM (inactive); in the test on PC-3, 9.18 µM (inactive); in the test with A549, 19.6 µM (inactive); in the test with SF-268, 7.45 µM (inactive); in the test with UO-31, 17.6 µM (inactive); with COLO 205 it was 4.62 µM (inactive). Besides, the GI50 with HCT-116 is 3.21 µM (inactive).

For the compound `CC(=O)OC12c3ccccc3C(c3ccccc31)C1C(=O)N(c3ccccn3)C(=O)C12` (centres undefined), the GI50 in the test on OVCAR-8 is > 100 µM (inactive); in the test with CAKI-1, > 100 µM (inactive); in the test with SN12C, 81.1 µM (inactive); in the test on HCC 2998, 72.6 µM (inactive); with NCI/ADR-RES it was 55.2 µM (inactive); with OVCAR-5 it was > 100 µM (inactive). Also, the GI50 was > 100 µM (inactive) in the test on DU-145; 28.4 µM (inactive) in the test with OVCAR-3; 77.8 µM (inactive) with MDA-MB-231; 51.8 µM (inactive) with M14; 53.3 µM (inactive) in the test on T47D; > 100 µM (inactive) in the test with SK-OV-3. For the same compound, the GI50 in the test with Malme-3M was 31.8 µM (inactive); with PC-3, 47.9 µM (inactive); in the test with A549, 62.7 µM (inactive); in the test on SF-268 it was 87.3 µM (inactive); in the test with UO-31, 15.8 µM (inactive); in the test on COLO 205, 64.6 µM (inactive). In the test on HCT-116, the GI50 is 54.7 µM (inactive).

For `COc1cc2c(cc1OCCCCCOc1cc3c(cc1OC)C(=O)N1CCC[C@H]1C(=O)N3)N=C[C@@H]1CCCN1C2=O`, the GI50 was 0.225 µM (active) with OVCAR-8; 0.839 µM (active) in the test with CAKI-1; 0.0711 µM (active) in the test with SN12C; < 0.01 µM (active) in the test with HCC 2998; 7.8 µM (inactive) with NCI/ADR-RES; 0.957 µM (active) in the test with OVCAR-5. Also, the GI50 was 0.78 µM (active) in the test on DU-145; 0.165 µM (active) in the test on OVCAR-3; 0.14 µM (active) in the test on MDA-MB-231; 0.114 µM (active) with M14; 0.0336 µM (active) with T47D; 0.102 µM (active) in the test on SK-OV-3. The GI50 was 0.161 µM (active) with Malme-3M; 0.256 µM (active) in the test with PC-3; 0.716 µM (active) in the test with A549; 0.0325 µM (active) in the test with SF-268; 0.762 µM (active) in the test on UO-31; 0.0177 µM (active) with COLO 205. Further, the GI50 in the test on HCT-116 was 0.193 µM (active).
